Test results: US5614370A, “Assay to identify human C5a antagonists and agonists” (Merck & Co., Inc., priority 1994, dated 1997)
“Also recorded” adds a separate entry of the source. Where two headings read alike, the source gives them in different places. Each block holds one molecule with its values, some of them ahead of it. Non-standard residues stand in square brackets, D forms with d. Residues, ends and D or L forms follow the SMILES beside them. NMeF = CN[C@@H](Cc1ccccc1)C(=O)O; Cha = N[C@@H](CC1CCCCC1)C(=O)O; dCha = N[C@H](CC1CCCCC1)C(=O)O

How the values were obtained:
[1] = molecular target: T1, C5a receptor (Homo sapiens, UniProt P21730); experiment: biochemical; assay type: binding
T1 construct: followed by a 20 μL aliquot of neutrophil membrane; endogenous in cells
T1 sequence (P21730 1-350): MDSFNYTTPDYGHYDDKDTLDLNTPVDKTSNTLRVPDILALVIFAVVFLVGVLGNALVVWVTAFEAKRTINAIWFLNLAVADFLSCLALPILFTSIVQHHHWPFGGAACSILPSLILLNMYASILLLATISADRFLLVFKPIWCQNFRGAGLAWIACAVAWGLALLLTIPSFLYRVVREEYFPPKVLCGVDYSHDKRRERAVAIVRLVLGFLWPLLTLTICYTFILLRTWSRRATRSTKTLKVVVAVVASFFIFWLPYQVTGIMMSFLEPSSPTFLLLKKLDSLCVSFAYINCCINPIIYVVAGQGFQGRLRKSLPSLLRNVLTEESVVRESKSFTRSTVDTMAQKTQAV
Protocol: Initially, we attempted to conduct binding studies with ^125 I radiolabeled C009: ^125 I-Tyr Phe Lys Ala Cha Cha Leu dPhe Arg, SEQ.ID:1:, wherein Cha is cyclohexylalanine, and dPhe is the D isomer of phenylalanine. This compound is a C5a agonist displaying a Ki for C5a of 8 nM. The presence of the tyrosine allowed us to radioiodinate the peptide and establish a binding assay in which both C5a (IC50=0.1 nM) and unlabeled C009 (IC50 =10 nM) inhibit the binding of ^125 I-C009 with concentration dependencies similar to those obtained from competition experiments against ^125 I-C5a.
In FIG. 1, unlabeled C013 is used to compete with ^125 I-labeled C5a. […] In FIG. 2, the C013 is ^125 I labeled. Unlabeled C5a and unlabeled C013 are each used to compete the labeled C013 from C5a binding sites on the membranes. […] In FIG. 3a, ^125 I-C5a is competed from its binding site by unlabeled C064 and unlabeled, natural C5a (as opposed to recombinant C5a, which, however, may also obviously may be used for these purposes). […] In FIG. 3b, the inverse experiment is shown, wherein ^125 I-C064 is displaced by unlabeled C064 and unlabeled nC5a.
Peptide (5 nMoles) are added to 40μL of 0.1 M sodium phosphate, pH 7.6, in a tube, followed by 2 mCi of ^125 I in 20 μL. 10 μL of a freshly made 0.5 mg/mL solution of chloramine T is then added. After 30 seconds of incubation, 10 μL of a freshly prepared 2 mg/mL solution of Na2 S2 O3 is added, the tube is vortexed, and the sample loaded onto a Vydac C4 reverse phase column. The column is developed with a TFA/acetonitrile gradient and the iodinated peptide is isolated. The material is stored at 4° C. in the elution buffer.
To 205 μL binding buffer (50 mM HEPES, pH 7.2, containing 5 mM MgCl2, 1mM CaCl2, 0.5% BSA) in a polypropylene tube is added 30,000CPM of the ^125 I peptide in 20 μL, and 5 μL of a known dilution of the test compound or diluent, followed by a 20 μL aliquot of neutrophil membrane [equivalent to 500,000 neutrophils; Rollins, T.E. et al., J. Biol Chem. 260:7157 (1985); see also U.S. Pat. No. 5,177,190, herein incorporated by reference].
The assay mixture is incubated for 2 hours at 29° C. Binding buffer (2 mL) is then added, the tube is vortexed, and the contents filtered over a Wattmann GF/C filter soaked in 0.33% polyethylenimine. An additional aliquot of binding buffer (2 mL) is added to the tube to rinse the tube, and is then used to wash the filter. The filters are removed from the apparatus and counted. Non-specific backgrounds are determined by performing assays in the presence of either 10 nM C5a, or 1 μM unlabeled peptide. Compounds which inhibit the binding of the labeled peptide are considered to be potential active compounds.

[2] = tested on: degranulation; conditions: Mollison et al., cited from earlier work
[3] = tested on: chemokinetic response; conditions: Mollison et al.; cited from earlier work
[4] = tested on: neutrophils; conditions: Drapeau et al.; cited from earlier work
[5] = tested on: C5a receptor; conditions: literature; cited from earlier work
[6] = tested on: human neutrophils; experiment: Inhibition of C5a induced degranulation (MPO release); assay type: cell-based
Protocol: (§1) FIG. 7A and 7B. […] These concentrations of the stimulating agents released 22% and 19% of the total cellular MPO, respectively.
(§2) This assay was performed on human neutrophils as previously reported and it is a measure of C5a or peptide induced exocytosis (Rollins, T. E. and Springer, M. S. (1985) J. Biol. Chem. 260, 7157-7160).

[7] = tested on: human neutrophil membranes; experiment: Inhibition of C5a stimulated GTPase activity; assay type: biochemical
Protocol: as §1
The method of Kupper et al. (Kupper, R. W., Dewald, B., Jakobs, K. H., Baggiolini, M. and Gierschik, P. (1992) Biochem. J. 282, 429-434) was adapted for use in microtiter plates. Neutrophil membranes were suspended in 50 mM triethanolamine-HCl, 5 mM MES, pH 7.3, containing 1 mM EDTA, 5 mM MgCl2, 143 mM NaCl, 0.16 % BSA, 1 mM ouabain, 1 mM AMP-PNP, 0.5 mM ATP, 2.5 U/mL creatine phosphokinase,. 10 mM creatine phosphate, 0.1 mM PMSF and 10 ng/mL each of leupeptin, aprotinin and chymostatin. 50 μL of membranes containing 1-5 μg protein were added to 50 μL of the same buffer containing the test agent and 0.25 μM [γ-^32 P]-GTP (2,000 cpm/pmol) in the wells of a U-shaped microtiter plate. After incubation for 15-30 rain at 29° C., 100 μL of a 10% (w/v) charcoal suspension in 100 mM H3 PO4 was added and plates were centrifuged at 2000 rpm for 5 min. 100 μL of the supernatant was transferred to an Optiplate microtiter plate and 100 μL of Microscint-40 scintillation cocktail was added. Plates were counted in a Packard TopCount microtiter plate counter.

[8] = tested on: human neutrophils; experiment: Inhibition of IL-8 induced degranulation (specificity control); assay type: cell-based; conditions: 8 nM IL-8, FIG. 7A
Protocol: as §1, §2

[9] = labeled ligand 125I-C009, read-out: IC50 for inhibition of binding of 125I-C009

IC50 [1, 9]: 10 nM
Molecule: CC(C)C[C@H](NC(=O)[C@H](CC1CCCCC1)NC(=O)[C@H](CC1CCCCC1)NC(=O)[C@H](C)NC(=O)[C@H](CCCCN)NC(=O)[C@H](Cc1ccccc1)NC(=O)[C@@H](N)Cc1ccc(O)cc1)C(=O)N[C@H](Cc1ccccc1)C(=O)N[C@@H](CCCNC(=N)N)C(=O)O [C009, Tyr Phe Lys Ala Cha Cha Leu dPhe Arg] (H-YFKA[Cha][Cha]L[dF]R-OH)
change of binding affinity by radioiodination [1]: about a four-fold loss in binding affinity

IC50 ([6]; FIG. 7A, challenge 0.4 nM C5a): 100 nM
IC50 ([7]; FIG. 7B, 3 nM C5a): 3000 nM
Molecule: CN[C@@H](Cc1ccccc1)C(=O)N[C@@H](CCCCN)C(=O)N1CCC[C@H]1C(=O)N[C@H](CC1CCCCC1)C(=O)N[C@@H](Cc1c[nH]c2ccccc12)C(=O)N[C@H](CCCNC(=N)N)C(=O)O [C089]
inhibition of C5a stimulated degranulation in words [6]: inhibits C5a stimulated degranulation
inhibition of C5a stimulated G protein activation in words [7]: inhibits C5a stimulated degranulation and G protein activation
effect on IL-8 induced degranulation [8]: little effect on IL-8 induced degranulation

More lines, now with the values behind:

Molecule: CN[C@@H](Cc1ccccc1)C(=O)N[C@@H](CCCCN)C(=O)N1CCC[C@H]1C(=O)N[C@H](CC1CCCCC1)C(=O)N[C@@H](Cc1ccccc1)C(=O)N[C@H](CCCNC(=N)N)C(=O)O [C026, NMeF--K--P-dCha-F-dR] (H-[NMeF]KP[dCha]F[dR]-OH)
degranulating activity in words [2]: not only failed to stimulate degranulation, it acted as an antagonist for this property
degranulating activity in words ([2]; listed as NMeF--K--P-dCha-F-dR): totally devoid of degranulating activity
chemokinetic response [3]: only a small chemokinetic response
stimulation of superoxide release from neutrophils [4]: failed to stimulate superoxide release from neutrophils
agonist properties in words [5]: reduced agonist properties; also recorded: behaved as an agonist in other assays

Molecule: CN[C@@H](Cc1ccccc1)C(=O)N[C@@H](CCCCN)C(=O)N1CCC[C@H]1C(=O)N[C@H](CC1CCCCC1)C(=O)N[C@@H](CC1CCCCC1)C(=O)N[C@H](CCCNC(=N)N)C(=O)O [C028, MePhe Lys Pro dCha Cha dArg] (H-[NMeF]KP[dCha][Cha][dR]-OH)
degranulating activity in words [2]: exhibited normal degranulating activity

B1: C5a: 74 amino acid protein derived from the fifth component of serum complement during complement activation (protein, UniProt P01031 678-751, looked up)
C5a anaphylatoxin: TLQKKIEEIAAKYKHSVVKKCCYDGACVNNDETCEQRAARISLGPRCIKAFTECCVVASQLRANISHKDMQLGR
modifications: C5a anaphylatoxin
IC50 [1, 9]: 0.1 nM
IC50 ([1]; labeled ligand 125I-C013, read-out: IC50 exhibited by the unlabeled ligand): 0.15 nM
IC50 ([1]; labeled ligand 125I-C064, read-out: IC50 exhibited by the unlabeled ligand): 0.093 nM
